{
  "source": "patent US20250057790A1",
  "about": "“AN INJECTABLE PHARMACEUTICAL COMPOSITION FOR THE TREATMENT OF RESPIRATORY DISEASES IN ANIMALS” (priority 2021, published 2025)",
  "key": {"[1]": {"system": "microbes that cause respiratory disease in animals", "test": "Activity against the microbes that cause respiratory disease in animals (statement)", "assay_type": "cell-based"}, "H. somni": {"system": "H. somni", "test": "MIC determination, broth microdilution, field isolates", "assay_type": "cell-based, Histophilus somni", "experimental": "This study determined the in vitro activity Compound (A), the enantiomer of the compound of Formula (I), against different isolates of Actinobacillus (A.) pleuropneumoniae, Bordetella (B.) bronchiseptica, Mannheimia (M.) haemolytica, Pasteurella (P.) multocida, Histophilus (H.) somni and Glaesserella parasuis collected in different European countries.\nThe in vitro activity was determined by measuring the minimum inhibitory concentrations (MIC) according to CLSI document VET01-A4 [1] and by calculating MIC50 and MIC90.\nA total of 193 field isolates were tested: 31 of A. pleuropneumoniae, 20 of B. bronchiseptica, 20 of H. somni, 20 H. parasuis, 55 of M. haemolytica and 47 of P. multocida. All bacteria were isolated from the respiratory tract of cattle and swine suffering from respiratory disease. All isolates were epidemiologically unrelated as specified by the different suppliers. E. coli ATCC 25922 (ID 6105) and M. haemolytica ATCC 33396 (ID 6374) were used as reference strains for testing isolates of B. bronchiseptica, M. haemolytica and P. multocida. A. pleuropneumoniae ATCC 27090 (ID 6314) and H. somni ATCC 700025 (ID 6315) were used as reference strains for the testing isolates of A. pleuropneumoniae, H. somni and Glaesserella parasuis. Additionally, H. parasuis (G. parasuis) ATCC 19417 was included as type strain for growth control.\n• Mueller-Hinton agar (Becton Dickinson, Lot 9224866) • Cation-adjusted Mueller-Hinton broth, (CAVHB, Becton Dickinson, Lot 8190586) • Sheep blood, defibrinated (Thermo Scientific, Lot 37091500) • Chocolate agar, GC II with IsoVitalex™ (Becton Dickinson, Lot 0147695) • GC-agar base (Becton Dickinson, Lot 6082608) • Hemoglobin solution (Becton Dickinson, Lot 7142854) • Vitox (Oxoid, Lot 2344976) • Veterinary fastidious Medium (VFM), prepared according to CLSI document VET01-A4 [1], containing: • CAMHB (Becton Dickinson, Lot 8190586) • Yeast extract (Sigma, Lot BCBS5470V) • Lysed horse blood (Thermo Scientific, Lot 35875000) • Supplement C™ (Becton Dickinson, Lot 8030960) • Deionized water\n[…] […] The test concentration range for all compounds was 16 μg/mL to 0.016 μg/mL.\nThe MIC results were interpreted according to the CLSI document VET01-S3 [2]. […] All wells containing test item were compared with the growth-control wells. The lowest concentration of compound at which no visible growth (i.e. no turbidity) was detected by the unaided eye was recorded as the MIC. If a “trailing endpoint” occurs, the MIC is defined as the first concentration at which a markedly reduction (about 90%) of the inoculum is observed.\n[…] […] The MIC50 and MIC90 represent the concentrations at which a minimum of 50% or 90% of the isolates tested are inhibited."}},
  "data": [
    {"smiles": "COCCNCc1ccc(C#Cc2ccc(C(=O)N[C@H](C(=O)NO)C(C)(C)N)cc2)cc1", "note": "[Compound A]", "values": [
      {"measurement": "Activity against the microbes that cause respiratory disease in animals", "setting": "[1]", "result": "activity against the microbes that cause respiratory disease in animals"},
      {"measurement": "MIC50", "setting": "H. somni; Histophilus somni, 20 isolates", "result": 0.5, "unit": "mg/L"},
      {"measurement": "MIC90", "setting": "H. somni; Histophilus somni, 20 isolates", "result": 1, "unit": "mg/L"},
      {"measurement": "Distribution of MICs: number of isolates with MIC 0.125 μg/mL", "setting": "H. somni; of 20 isolates tested", "result": 1},
      {"measurement": "Distribution of MICs: number of isolates with MIC 0.25 μg/mL", "setting": "H. somni; of 20 isolates tested", "result": 5},
      {"measurement": "Distribution of MICs: number of isolates with MIC 0.5 μg/mL", "setting": "H. somni; of 20 isolates tested", "result": 8},
      {"measurement": "Distribution of MICs: number of isolates with MIC 1 μg/mL", "setting": "H. somni; of 20 isolates tested", "result": 5},
      {"measurement": "Distribution of MICs: number of isolates with MIC 2 μg/mL", "setting": "H. somni; of 20 isolates tested", "result": 1}
    ]}
  ]
}
